From ChEMBL document CHEMBL1201862, “PubChem BioAssay data set” (2004)
Active and inactive are the calls of the source.

What was measured:
[1] = target: T1, Probable nicotinate-nucleotide adenylyltransferase (Staphylococcus aureus (strain N315), UniProt P65502); assay type: functional, Staphylococcus aureus subsp. aureus N315;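 for IC50 Mean: confirmatory dose-response retesting of NadD inhibitor hits first found in an ultra-high-throughput screen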
[2] = target: T1, Probable nicotinate-nucleotide adenylyltransferase; assay type: functional, Staphylococcus aureus subsp. aureus N315; settings: read-out: IC50_Mean
Protein Wnt-3a = Protein Wnt-3a (Mus musculus, UniProt P27467); experiment: antagonism of Wnt3a pathway luciferase reporter – Wnt-LIGHT cells, luminescence, selectivity assay for Gli-SUFU antagonist project, dose response (AID 651570); assay type: functional; settings: read-out: IC50_Mean;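 note: Wnt-LIGHT reporter cells stimulated with conditioned medium from Wnt3a-producing cells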
Interleukin-8 = target: T2, Interleukin-8 (Homo sapiens, UniProt P10145); experiment: Dose Response confirmation of uHTS small molecule hits for cystic fibrosis induced NFkb Inhibitors in a PAF-induced IL8 counterscreen.; assay type: functional; settings: read-out: IC50_Mean
T2 sequence (P10145 whole entry): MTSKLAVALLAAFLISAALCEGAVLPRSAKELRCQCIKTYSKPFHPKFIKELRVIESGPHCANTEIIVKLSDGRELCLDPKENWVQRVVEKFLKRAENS

Estrogen receptor beta [3] = target: T3, Estrogen receptor beta (Homo sapiens, UniProt Q92731); experiment: blockers of SRC-3 recruitment to ERβ – biochemical, ELISA, streptavidin-HRP readout, orthogonal assay, confirmation (AID 1060)
Aminopeptidase N = target: T4, Aminopeptidase N (Plasmodium falciparum FcB1/Columbia, UniProt O96935); experiment: malaria alanyl aminopeptidase activity blockers – biochemical, fluorogenic H-Leu-NHMec substrate, 1536-well (AID 1445); parameters: species or system Plasmodium falciparum 3D7, 3D7
T4 sequence (O96935 whole entry): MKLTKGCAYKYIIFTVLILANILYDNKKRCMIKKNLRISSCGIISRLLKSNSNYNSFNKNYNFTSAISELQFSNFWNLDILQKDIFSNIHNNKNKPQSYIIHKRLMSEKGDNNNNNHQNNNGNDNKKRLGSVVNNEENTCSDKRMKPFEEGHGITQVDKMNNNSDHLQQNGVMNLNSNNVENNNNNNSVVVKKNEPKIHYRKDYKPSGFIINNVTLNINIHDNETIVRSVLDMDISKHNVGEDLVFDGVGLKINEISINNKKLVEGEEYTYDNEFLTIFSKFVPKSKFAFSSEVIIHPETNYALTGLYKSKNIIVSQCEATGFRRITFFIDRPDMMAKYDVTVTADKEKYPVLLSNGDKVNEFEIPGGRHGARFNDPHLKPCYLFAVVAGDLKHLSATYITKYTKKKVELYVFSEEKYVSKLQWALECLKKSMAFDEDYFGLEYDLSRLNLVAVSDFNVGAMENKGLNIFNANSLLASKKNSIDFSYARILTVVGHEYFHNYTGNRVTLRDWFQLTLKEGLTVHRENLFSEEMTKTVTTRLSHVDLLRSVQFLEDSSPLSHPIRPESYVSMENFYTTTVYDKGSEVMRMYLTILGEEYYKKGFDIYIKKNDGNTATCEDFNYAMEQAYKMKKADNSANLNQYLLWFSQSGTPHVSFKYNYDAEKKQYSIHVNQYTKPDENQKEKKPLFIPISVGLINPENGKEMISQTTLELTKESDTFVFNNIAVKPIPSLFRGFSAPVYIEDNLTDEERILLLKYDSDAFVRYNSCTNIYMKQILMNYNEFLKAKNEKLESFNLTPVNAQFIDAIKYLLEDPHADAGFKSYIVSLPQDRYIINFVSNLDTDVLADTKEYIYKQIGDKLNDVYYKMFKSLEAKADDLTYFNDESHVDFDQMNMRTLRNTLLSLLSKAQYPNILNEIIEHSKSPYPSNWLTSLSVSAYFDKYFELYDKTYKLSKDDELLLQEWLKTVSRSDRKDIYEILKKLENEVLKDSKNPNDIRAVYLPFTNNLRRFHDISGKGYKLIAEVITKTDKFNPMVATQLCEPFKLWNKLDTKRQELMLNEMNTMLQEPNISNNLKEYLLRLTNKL

Estrogen receptor beta [4] = target: T3, Estrogen receptor beta
Streptococcus = experiment: GAS UMAA2166 growth inhibition – luminescence, BacTiterGlo, counter-screen for streptokinase expression inhibitor project, dose response (AID 1915); assay type: functional, organism-based;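 note: potency for reduction of bacterial viability or growth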
[5] = target: DNA (cytosine-5)-methyltransferase 1 (Homo sapiens, UniProt P26358); experiment: inhibition of DNA methylation by DNMT1 – biochemical, fluorescent molecular beacon, confirmation (AID 602386); assay type: functional
[6] = Luminescence Cell-Based Dose Retest to Confirm Inhibitors of Cancer Stem Cells. [Related pubchem assays (depositor defined):AID2717, AID2721]; assay type: functional; settings: Homo sapiens
[7] = tested on: Streptococcus sp. 'group A'; experiment: Streptococcus pyogenes SK(-)GAS viability under kanamycin – luminescence, BacTiterGlo, confirmation, counter-screen for streptokinase expression inhibitor project, dose response (AID 1900); assay type: functional, organism-based
[8] = target: Induced myeloid leukemia cell differentiation protein Mcl-1 (Homo sapiens, UniProt Q07820); assay type: functional
[9] = target: T5, Sentrin-specific protease 8 (Homo sapiens, UniProt Q96LD8); experiment: inhibition of human SENP8 cleavage activity – biochemical, luminescence, SAR follow-up (AID 504501); assay type: functional
T5 sequence (Q96LD8 whole entry): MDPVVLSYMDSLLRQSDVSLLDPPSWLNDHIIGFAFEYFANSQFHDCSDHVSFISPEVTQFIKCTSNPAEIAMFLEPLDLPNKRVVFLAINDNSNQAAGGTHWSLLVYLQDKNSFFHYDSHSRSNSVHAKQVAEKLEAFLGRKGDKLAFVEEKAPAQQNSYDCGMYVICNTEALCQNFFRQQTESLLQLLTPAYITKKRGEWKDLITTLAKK

[10] = target: T6, Sentrin-specific protease 6 (Homo sapiens, UniProt Q9GZR1); experiment: SAR Analysis of small molecule inhibitors of Sentrin-specific protease 6 (SENP6) using a Luminescent assay. [Related pubchem assays (depositor defined):AID2582, AID2599]; assay type: functional
T6 sequence (Q9GZR1 whole entry): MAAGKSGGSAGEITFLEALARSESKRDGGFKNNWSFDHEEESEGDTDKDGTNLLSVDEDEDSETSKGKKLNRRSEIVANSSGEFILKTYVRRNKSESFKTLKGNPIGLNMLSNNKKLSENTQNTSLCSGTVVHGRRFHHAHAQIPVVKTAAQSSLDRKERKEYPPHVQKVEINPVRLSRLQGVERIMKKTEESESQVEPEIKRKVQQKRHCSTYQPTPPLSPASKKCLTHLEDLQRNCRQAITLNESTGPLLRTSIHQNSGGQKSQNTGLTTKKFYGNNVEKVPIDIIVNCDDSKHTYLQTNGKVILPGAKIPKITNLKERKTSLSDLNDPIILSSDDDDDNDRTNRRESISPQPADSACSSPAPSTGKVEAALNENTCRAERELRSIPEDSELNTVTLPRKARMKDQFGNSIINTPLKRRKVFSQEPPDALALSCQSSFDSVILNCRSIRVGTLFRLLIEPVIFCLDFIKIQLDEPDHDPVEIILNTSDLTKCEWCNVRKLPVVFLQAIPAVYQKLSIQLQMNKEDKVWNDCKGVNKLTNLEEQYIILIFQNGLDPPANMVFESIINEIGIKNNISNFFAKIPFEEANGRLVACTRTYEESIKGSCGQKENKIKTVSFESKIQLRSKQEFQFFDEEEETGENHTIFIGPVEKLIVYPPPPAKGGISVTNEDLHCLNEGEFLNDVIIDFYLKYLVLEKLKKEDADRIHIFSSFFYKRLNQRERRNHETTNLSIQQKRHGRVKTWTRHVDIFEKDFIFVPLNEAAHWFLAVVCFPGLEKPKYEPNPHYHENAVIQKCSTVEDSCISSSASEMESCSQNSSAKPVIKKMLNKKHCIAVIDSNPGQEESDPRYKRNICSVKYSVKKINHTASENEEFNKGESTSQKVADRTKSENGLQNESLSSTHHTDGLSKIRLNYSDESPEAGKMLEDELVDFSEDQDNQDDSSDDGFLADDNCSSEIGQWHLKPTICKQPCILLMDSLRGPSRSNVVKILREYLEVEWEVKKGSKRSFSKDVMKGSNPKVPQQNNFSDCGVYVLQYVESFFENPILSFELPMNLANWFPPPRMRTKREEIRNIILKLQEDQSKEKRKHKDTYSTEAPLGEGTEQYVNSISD

[11] = target: T7, Sentrin-specific protease 7 (Homo sapiens, UniProt Q9BQF6); experiment: inhibition of human SENP7 cleavage activity – biochemical, luminescence, SAR follow-up (AID 504497); assay type: functional
T7 sequence (Q9BQF6 whole entry): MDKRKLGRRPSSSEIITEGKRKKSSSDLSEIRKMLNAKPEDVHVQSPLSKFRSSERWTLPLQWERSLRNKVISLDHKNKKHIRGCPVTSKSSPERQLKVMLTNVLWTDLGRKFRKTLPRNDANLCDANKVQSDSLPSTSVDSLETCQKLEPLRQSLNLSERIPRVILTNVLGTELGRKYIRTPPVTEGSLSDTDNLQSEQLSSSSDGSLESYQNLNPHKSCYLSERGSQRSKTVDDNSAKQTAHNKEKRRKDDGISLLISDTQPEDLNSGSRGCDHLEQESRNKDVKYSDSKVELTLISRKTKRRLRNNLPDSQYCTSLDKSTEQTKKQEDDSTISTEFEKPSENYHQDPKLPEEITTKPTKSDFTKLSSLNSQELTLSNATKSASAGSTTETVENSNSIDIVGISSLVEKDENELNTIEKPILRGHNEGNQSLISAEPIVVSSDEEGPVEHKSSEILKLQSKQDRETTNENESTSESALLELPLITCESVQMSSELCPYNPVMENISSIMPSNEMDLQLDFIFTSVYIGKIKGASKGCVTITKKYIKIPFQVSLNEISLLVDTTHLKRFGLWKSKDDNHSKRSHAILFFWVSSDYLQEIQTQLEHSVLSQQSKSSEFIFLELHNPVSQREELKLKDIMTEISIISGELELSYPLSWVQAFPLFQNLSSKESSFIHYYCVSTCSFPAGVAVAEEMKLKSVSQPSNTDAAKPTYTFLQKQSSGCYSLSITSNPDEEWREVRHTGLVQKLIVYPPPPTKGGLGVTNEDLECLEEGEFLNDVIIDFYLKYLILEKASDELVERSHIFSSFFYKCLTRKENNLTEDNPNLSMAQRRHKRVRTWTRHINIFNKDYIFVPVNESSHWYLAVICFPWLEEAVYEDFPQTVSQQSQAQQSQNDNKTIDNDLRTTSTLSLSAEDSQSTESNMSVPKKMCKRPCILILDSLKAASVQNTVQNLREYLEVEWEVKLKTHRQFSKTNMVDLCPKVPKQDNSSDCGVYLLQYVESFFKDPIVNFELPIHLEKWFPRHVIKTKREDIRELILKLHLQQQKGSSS

Caspase-3 = target: T8, Caspase-3 (Homo sapiens, UniProt P42574); experiment: SAR Analysis of small molecule inhibitors of Sentrin-specific proteases (SENPs) using a Caspase-3 Selectivity assay. [Related pubchem assays (depositor defined):AID2540, AID2599, AID434973, AID489001]; assay type: functional
T8 sequence (P42574 whole entry): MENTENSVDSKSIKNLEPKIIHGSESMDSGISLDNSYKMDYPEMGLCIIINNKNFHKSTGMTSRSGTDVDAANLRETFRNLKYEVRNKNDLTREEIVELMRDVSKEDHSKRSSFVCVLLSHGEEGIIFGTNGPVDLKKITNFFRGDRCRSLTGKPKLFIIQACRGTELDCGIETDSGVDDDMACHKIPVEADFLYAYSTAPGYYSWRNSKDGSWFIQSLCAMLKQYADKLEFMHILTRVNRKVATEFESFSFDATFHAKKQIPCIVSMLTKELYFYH
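Throughout, for AC50: cells exposed to compound for roughly 70 hours or longer before luminescence read.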

T1 sequence (P65502 whole entry): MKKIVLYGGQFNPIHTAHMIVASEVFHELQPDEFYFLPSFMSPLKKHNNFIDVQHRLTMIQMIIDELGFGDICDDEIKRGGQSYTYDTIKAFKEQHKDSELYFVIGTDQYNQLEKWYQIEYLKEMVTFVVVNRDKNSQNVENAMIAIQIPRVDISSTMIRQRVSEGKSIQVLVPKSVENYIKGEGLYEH
T3 sequence (Q92731 whole entry): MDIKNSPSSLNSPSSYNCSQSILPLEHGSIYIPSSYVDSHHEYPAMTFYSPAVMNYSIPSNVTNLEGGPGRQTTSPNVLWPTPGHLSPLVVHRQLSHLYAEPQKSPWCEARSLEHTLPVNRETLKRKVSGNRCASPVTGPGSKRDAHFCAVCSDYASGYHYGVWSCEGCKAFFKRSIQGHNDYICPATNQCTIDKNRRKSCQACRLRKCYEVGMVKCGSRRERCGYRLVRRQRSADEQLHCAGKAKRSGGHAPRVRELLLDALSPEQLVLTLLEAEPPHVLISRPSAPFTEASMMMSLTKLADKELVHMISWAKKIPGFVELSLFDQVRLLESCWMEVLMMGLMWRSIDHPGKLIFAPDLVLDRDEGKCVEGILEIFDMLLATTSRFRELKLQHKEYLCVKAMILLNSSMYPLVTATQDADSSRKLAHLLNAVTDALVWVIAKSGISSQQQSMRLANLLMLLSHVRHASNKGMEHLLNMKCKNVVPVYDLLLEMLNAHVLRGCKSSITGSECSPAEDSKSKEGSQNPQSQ
Protein Wnt-3a, sequence (P27467 whole entry): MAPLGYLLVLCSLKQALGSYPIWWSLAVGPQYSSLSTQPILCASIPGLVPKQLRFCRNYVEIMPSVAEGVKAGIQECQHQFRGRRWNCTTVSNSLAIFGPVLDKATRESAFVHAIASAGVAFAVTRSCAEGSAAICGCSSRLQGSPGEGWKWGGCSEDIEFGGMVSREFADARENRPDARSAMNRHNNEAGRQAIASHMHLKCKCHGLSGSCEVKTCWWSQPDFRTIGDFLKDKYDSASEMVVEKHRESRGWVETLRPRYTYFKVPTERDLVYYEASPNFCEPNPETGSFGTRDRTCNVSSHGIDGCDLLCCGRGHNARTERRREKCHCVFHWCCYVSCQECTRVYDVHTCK
Induced myeloid leukemia cell differentiation protein Mcl-1, sequence (Q07820 whole entry): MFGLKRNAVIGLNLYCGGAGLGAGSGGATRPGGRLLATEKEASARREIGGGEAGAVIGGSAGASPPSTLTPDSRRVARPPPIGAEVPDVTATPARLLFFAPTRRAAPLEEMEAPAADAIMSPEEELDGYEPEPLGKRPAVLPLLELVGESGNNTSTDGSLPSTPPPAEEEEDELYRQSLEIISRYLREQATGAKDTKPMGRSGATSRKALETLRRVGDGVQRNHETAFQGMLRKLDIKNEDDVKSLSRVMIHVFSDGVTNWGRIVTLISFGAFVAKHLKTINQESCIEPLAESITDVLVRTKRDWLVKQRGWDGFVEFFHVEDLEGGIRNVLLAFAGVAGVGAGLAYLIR
DNA (cytosine-5)-methyltransferase 1, sequence (P26358 whole entry): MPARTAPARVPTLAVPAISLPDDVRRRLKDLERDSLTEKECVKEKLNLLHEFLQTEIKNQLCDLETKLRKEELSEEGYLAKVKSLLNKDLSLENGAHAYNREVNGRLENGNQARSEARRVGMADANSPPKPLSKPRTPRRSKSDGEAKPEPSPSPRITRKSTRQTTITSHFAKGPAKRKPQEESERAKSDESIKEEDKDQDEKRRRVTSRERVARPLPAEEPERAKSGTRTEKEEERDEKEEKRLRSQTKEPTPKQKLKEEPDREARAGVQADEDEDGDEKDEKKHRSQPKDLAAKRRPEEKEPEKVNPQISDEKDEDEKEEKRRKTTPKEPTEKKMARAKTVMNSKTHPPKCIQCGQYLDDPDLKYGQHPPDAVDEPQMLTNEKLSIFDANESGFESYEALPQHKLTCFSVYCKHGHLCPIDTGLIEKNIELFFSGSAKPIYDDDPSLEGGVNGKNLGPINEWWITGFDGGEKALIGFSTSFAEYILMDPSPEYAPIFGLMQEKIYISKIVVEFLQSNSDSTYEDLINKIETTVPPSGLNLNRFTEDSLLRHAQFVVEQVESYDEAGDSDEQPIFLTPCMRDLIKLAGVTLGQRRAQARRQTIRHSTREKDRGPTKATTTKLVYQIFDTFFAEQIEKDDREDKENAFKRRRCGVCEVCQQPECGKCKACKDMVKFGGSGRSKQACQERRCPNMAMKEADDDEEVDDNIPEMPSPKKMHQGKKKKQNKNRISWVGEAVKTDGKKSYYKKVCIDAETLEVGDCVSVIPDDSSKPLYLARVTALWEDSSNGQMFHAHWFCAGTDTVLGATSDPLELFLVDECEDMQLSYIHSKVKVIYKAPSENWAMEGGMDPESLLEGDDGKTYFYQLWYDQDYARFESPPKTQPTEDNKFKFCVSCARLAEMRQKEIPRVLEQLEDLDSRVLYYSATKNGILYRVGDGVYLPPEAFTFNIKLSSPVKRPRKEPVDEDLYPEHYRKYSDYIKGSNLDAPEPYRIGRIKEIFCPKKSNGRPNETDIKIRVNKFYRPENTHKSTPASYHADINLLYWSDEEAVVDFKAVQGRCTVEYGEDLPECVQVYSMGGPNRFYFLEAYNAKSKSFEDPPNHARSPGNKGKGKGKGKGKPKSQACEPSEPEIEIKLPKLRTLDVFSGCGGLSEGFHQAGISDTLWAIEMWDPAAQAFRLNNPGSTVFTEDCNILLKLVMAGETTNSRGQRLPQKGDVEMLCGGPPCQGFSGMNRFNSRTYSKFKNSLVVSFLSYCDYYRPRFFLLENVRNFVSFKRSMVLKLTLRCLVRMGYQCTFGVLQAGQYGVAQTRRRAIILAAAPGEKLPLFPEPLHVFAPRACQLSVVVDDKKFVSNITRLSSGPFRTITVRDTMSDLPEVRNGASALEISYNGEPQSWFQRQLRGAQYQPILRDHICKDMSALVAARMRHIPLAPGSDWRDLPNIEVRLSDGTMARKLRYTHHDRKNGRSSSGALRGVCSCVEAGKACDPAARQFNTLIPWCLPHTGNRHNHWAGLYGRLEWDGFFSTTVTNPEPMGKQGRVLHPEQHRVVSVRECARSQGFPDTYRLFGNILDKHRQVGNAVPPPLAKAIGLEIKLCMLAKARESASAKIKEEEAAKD

Oc1ccc(Nc2nc(-c3cccs3)cs2)cc1
IC50 [1]: 14.3 µM (active) | IC50 [2]: 28.3 µM (active)

O=C(Nc1ccccc1)C1=C[C@@H](C2CCCCC2)C[C@@H](OCCCCO)O1
IC50 (Protein Wnt-3a): 47.7 µM (inactive)

CC1=C(C(=O)OCc2ccc3c(c2)OCO3)C(c2cccc([N+](=O)[O-])c2)NC(=O)N1 (stereo unspecified)
IC50 (Interleukin-8): > 79 µM (inactive)

Cc1oc2c(cc(NS(=O)(=O)c3ccc4c5c(cccc35)C(=O)N4)c3ccccc32)c1C(=O)OC(C)C
IC50 (Estrogen receptor beta [3]): 0.706 µM (not active) | IC50 [1]: 28.6 µM (active) | IC50 (Aminopeptidase N): 36.7 µM (active) | IC50 (Estrogen receptor beta [4]): 34.8 µM (not active) | IC50 [2]: 63.2 µM (active)

COc1ccc(/C=C2/C(=O)N(c3nc4ccccc4s3)N=C2CSc2ccc(Cl)cc2)cc1
EC50 (Streptococcus): 3.65 µM (active) | IC50 [5]: 2.86 µM (active) | AC50 [6]: 3.01 µM (active) | EC50 [7]: 0.647 µM (active) | IC50 [8]: 1.69 µM (active)

O=C(Nc1nc2ccc(NS(=O)(=O)c3ccc(Cl)s3)cc2s1)c1ccccc1
IC50 [9]: 3.34 µM (active) | IC50 [10]: 2.95 µM (active) | IC50 [11]: 2.65 µM (active) | IC50 (Caspase-3): 12 µM (active)

CCOc1ccc2nc(NC(=O)c3ccc(NS(=O)(=O)c4cccs4)cc3)sc2c1
IC50 [9]: > 99 µM (inactive) | IC50 [10]: > 99 µM (inactive) | IC50 [11]: 46.5 µM (active) | IC50 (Caspase-3): > 99 µM (inactive)

CCCCOCCCNC(=O)CNC(=O)c1sc2ccccc2c1Cl
IC50 [9]: > 99 µM (inactive) | IC50 [10]: > 99 µM (inactive) | IC50 [11]: > 99 µM (inactive) | IC50 (Caspase-3): > 99 µM (inactive)
